{"source": "patent US20210205329A1", "about": "(The University of North Carolina at Chapel Hill, priority 2018, published 2021)", "key": {"[1]": {"tested_on": "LPS-activated TLR4 signal", "assay": "LPS-activated TLR4 signaling in RAW264.7 cells (immunoblotting)", "type": "cell-based, mouse", "protocol": "Cells and reagents. Mouse monocyte macrophage ceils (RAW264.7) that innately express the TLR4 receptor were obtained from American Type Culture Collection (Manassas, Va., USA). The cells were grown in Dulbecco's modified Eagle's medium (DMEM) (Gibco; Gaithersburg, Md., USA) supplemented with 10% fetal bovine serum (FBS, Gemini, West Sacramento, Calif., USA), 1% penicillin/streptomycin 100× (Gibco) at 37° C. in a 5% CO2 humidified atmosphere. The TLR4-specific ligand IPS was purchased from Sigma-Aldrich (St. Louis, Mo., USA) (Cat. #L3024) and added to the cultures (1 μg/ml) 24 hrs before cell collection.\nImmunoblotting. The assay used for RAW264.7 cell lysates and co-immunoprecipitation was as previously described (Aurelian et al, 2016; June et al, 2015; Liu et al, 2011). RAW246.7 cells grown on T-75 flasks (n=5 flasks/group) were lysed with radioimmunoprecipitation (RIPA) buffer [20 mM Tris-HCl (pH 7.4), […], 1% Nonidet P-40 (Sigma, St. Louis, Mo., USA), 0.1% SDS (sodium dodecyl sulfate), 0.5% sodium deoxycholate] supplemented with protease and phosphatase inhibitor cocktails (Sigma). The total protein was determined by the bicinchoninic acid assay (BCA, Thermo Fisher Scientific, Waltham, Mass., USA, Cat. #23228 and Cat. #1859078). The proteins (100 μg/lane) were resolved by SDS-polyacrylamide gel electrophoresis using freshly prepared 16×18 cm gels and transferred to polyvinylidene fluoride membranes (PVDF, Bio-Rad, Cat. #162-0177). Blots were blocked with 5% Blotting-Grade Blocker (Bio-Rad, Cat. #1706404; for non-phosphorylated primary antibodies) or 5% BSA (for phosphorylated primary antibodies) for 2 hrs at room temperature (RT) and exposed to primary antibody overnight (4° C.), followed by horseradish peroxidase-labeled secondary antibodies for 1 h (room temp), immunoreactive bands were visualized with the Plus-ECL kit reagents (Perkin Elmer, Waltham, Mass., USA, Cat. #NEL105001EA) followed by exposure to high-performance chemiluminescence film (Hyperfilm ECL; Amersham). Quantitation was by densitometric scanning with a Bio-Rad GS-700 imaging densitometer. Blots were stripped and re-probed with different primary antibodies 3-5 times. Each densitometric measurement was divided by the corresponding β-Actin densitometric measurement and the results [n=5/group] are expressed as the mean β-Actin-adjusted densitometric units±SEM.\nTo examine whether the neurosteroids inhibit the LPS-activated TLR4 signal, RAW264.7 cells were treated with IPS (1 μg/mi; 24 hrs) in the absence or presence of 3α,5α-THP (0.5 μM, 1 μM) or pregnenolone (0.5 μM, 1 μM), and ceil extracts were assayed for expression of MyD88-dependent pathway members, by immunoblotting with antibodies to pTAK1, monocyte chemotactic protein (MCP-1), TRAF6, TLR4, and transcription factor NFκB p50 (Chattopadhyay S, et al. (2014). Cytokine Growth Factor Rev 25(5): 533-541; Irie T, et al. (2000). FEBS Lett 467(2-3): […]; Lu Y C, et al. (2008). Cytokine 42(2): 145-151).\nBecause the neurosteroids had relatively little effect on NFκB p50, the possibility that inhibition of other transcription factors and proinflammatory responses may be involved was considered. RAW246.7 ceils were treated as described above and protein extracts were immunoblotted with antibodies to phospho-NF-κB p65, pCREB, the proinflammatory cytokine tumor necrosis factor alpha (TNFα), and high mobility group box-1 (HMGB1), a highly conserved non-histone chromosomal protein, the translocation of which from the intra- to extra-cellular environment is a critical event in inflammatory responses. Indeed, HMGB1 is currently recognized as a cytokine secreted from activated macrophages and other inflammatory cells during the innate immune response and if is believed to function as a TLR4 ligand. […]"}, "[2]": {"tested_on": "innately activated TLR4 signal in P rat VTA", "assay": "TLR4 signaling in P rat VTA after systemic neurosteroid (immunoblot, MCP-1 ELISA)", "type": "in vivo", "conditions": "15 mg/kg IP, P rats", "protocol": "Immunoblotting for whole VTA lysates was done as previously described (Carlson et al, 2013). Briefly, VTA micropunches (1 mm thick) were lysed with CelLytic MT (dialyzable mild detergent, bicine, and 150 mM NaCl; Sigma-Aldrich) and protease and phosphatase inhibitor cocktail according to the manufacturer's instructions. Total protein was determined by the BCA assay. The proteins (10 μg/lane) were resolved by NuPAGE™ 4-12% Bis-Tris Midi Protein Gel (Thermo Fisher, Waltham, Mass.) electrophoresis and transferred using the iBlot 2 Dry Blotting System (Thermo Fisher, Waltham, Mass.). Blots were then exposed to an antibody for β-actin for normalization. Proteins were detected with enhanced chemilumenescence (GE Healthcare, Amersham, UK). Membranes were exposed to film under non-saturating conditions. Densitometric analysis was conducted using NIH Image 1.57.\nAnimals. Selectively bred, but alcohol naïve Alcohol-preferring (P) rats (male, 3-4 months old; 250-550 g) (n=7-9/group) were obtained from the Alcohol Research Center, Indiana University School of Medicine, Animals were double housed in Plexiglas cages containing corn cob bedding and food and water was available ad libitum. The colony room was maintained on a normal 12 hr light-dark cycle (light onset at 0700 hr). Procedures followed National Institutes of Health Guidelines under UNC institutional Animal Care and Use Committee approved protocols at University of North Carolina School of Medicine. Rats were habituated to handling for 7 days prior to administration of 3α,5α-THP (15 mg/kg, IP), pregnenolone (75 mg/kg, IP), 3α,5α-THDOC (15 mg/kg, IP), or vehicle (45% w/v 2-hydroxypropyl-p-cyclodextrin) and returned to their home cage. Rats were sacrificed after 45 minutes and the brain was removed and frozen at −80° C. until VTA micropunches were collected from 1 mm cryostat brain sections. This time point was selected because 3α,5α-THP is rapidly metabolized in vivo (Purdy et al, 1990), but has behavioral and pharmacological activity at this time point (Crawley et al, 1986).\nELISA. Brain tissue micropunches were lysed with Cellyte MT and the extracts were assayed for protein content by the BCA procedure (Pierce) and for MCP-1 using the rat MCP-1 ELISA kit (Raybiotech—ERC-MCP-1-CL; Norcross, Ga., USA) or for fracktalkine using the rat fractalkine ELISA kit (Raybiotech—ERC-CX3CL1-CL; Norcross, Ga., USA) as per manufacturer's instructions.\nSince the neurosteroids inhibited the TLR4 activation signal in cultured macrophage cells, experiments were conducted to determine whether this also occurs in the brain. Selectively bred P rats that have an innately activated TLR4 signal in the VTA (Liu J, et al. (2011). Proc Natl Acad Sci USA 108(11): 4465-4470), were administered 3α,5α-THP (15 mg/kg, IP) or pregnenolone (75 mg/kg, IP), sacrificed after 45 minutes and examined for TLR4 signaling using parallel measures. […] 3α,5α-THP administration reduced the levels of MCP-1 by 20±9% (p<0.05), TRAF6 by 19±3% (p<0.0001), and CRF by 28±9% (p<0.01), with no effect on TLR4 protein expression (FIG. 4A). Pregnenolone administration had no effect on TRAF6, CRF, or TLR4."}, "[3]": {"tested_on": "TLR7 signal", "assay": "Imiquimod-activated TLR7 signaling in RAW264.7 cells", "type": "cell-based, mouse", "conditions": "imiquimod 1 μg/ml for 24 hours, RAW264.7", "protocol": "Because multiple TLRs signal through MD-2, […] and MyD-88, the specificity of the neurosteroid 3α,5α-THP on TLR2, TLRS and TLR7 signal activation was examined in RAW264.7 ceils (FIG. 7). Pam3Cys (10 μg/ml) activated TLR2 signaling, evidenced by increases in pCREB, pERK1/2, TRAF6 and pATF-2, that were sustained for 24 hrs and inhibited by 3α,5α-THP (1 μM) (50-60% compared to vehicle)."}, "[4]": {"tested_on": "TLR3 signal", "assay": "Poly(I:C)-activated TLR3 signaling in RAW264.7 cells", "type": "cell-based, mouse", "conditions": "Poly-IC 25 μg/ml; 24 hrs; RAW264.7"}, "[5]": {"conditions": "0.5 μM or 1 μM (concentration not assigned), RAW264.7"}, "[6]": {"conditions": "1.0 μM, LPS 1 μg/ml, 24 hrs, RAW264.7"}}}
{"molecule": "C[C@]12CC[C@@H](O)C[C@@H]1CC[C@@H]1[C@@H]2CC[C@]2(C)[C@@H](C(=O)CO)CC[C@@H]12", "note": "[3α,5α-THDOC, (3α,5α)3,21-dihydroxypregnan-20-one]", "values": [{"measurement": "inhibition of LPS-activated MCP-1", "setting": "[1]; [5]", "result": "approximately 90%"}, {"measurement": "inhibition of LPS-activated NFκB p50", "setting": "[1]; [5]", "result": "30-40%"}, {"measurement": "effect on TLR4 expression", "setting": "[1]; 0.5 μM or 1 μM, LPS-treated RAW264.7, 24 hrs", "result": "did not affect"}, {"measurement": "enhancement of LPS-induced TRAF6", "setting": "[1]; 0.5 μM, LPS 1 μg/ml, 24 hrs, RAW264.7", "result": "51.6±8.3", "unit": "%"}, {"measurement": "enhancement of LPS-induced TRAF6", "setting": "[1]; [6]", "result": "16.8±5.7", "unit": "%"}, {"measurement": "increase of LPS-induced pTAK1", "setting": "[1]; [6]", "result": 2, "unit": "fold"}, {"measurement": "effect on TLR4 protein expression in VTA", "setting": "[2]; 45 minutes", "result": "No effect"}, {"measurement": "increase of CRF levels in VTA", "setting": "[2]", "result": "39±16", "unit": "%"}, {"measurement": "increase of TRAF6 levels in VTA", "setting": "[2]", "result": "32±12", "unit": "%"}, {"measurement": "effect on MCP-1 expression in VTA", "setting": "[2]; ELISA", "result": "no effect"}]}
{"molecule": "CC(C)Cn1cnc2c(N)nc3ccccc3c21", "note": "[imiquimod]", "values": [{"measurement": "increase in pIRF7", "setting": "[3]", "result": 30, "unit": "%"}]}
{"molecule": "Poly-IC", "values": [{"measurement": "increase in IP-10 (CXCL10) expression", "setting": "[4]", "result": 90, "unit": "%"}]}
